Paper PMC7782793, “Hydroxamic acid-modified peptide microarrays for profiling isozyme-selective interactions and inhibition of histone deacetylases” (Nature Communications, 2021)
“And” between values parts separate entries of the source, which are not always exact repeats. Equal values may be shown once. Marks after values point to notes of the source that are not given here. Non-standard residues stand in square brackets, D forms with d. Residues, ends and D or L forms follow the SMILES beside them. *: point of attachment. Asu = N[C@@H](CCCCCC(=O)O)C(=O)O; NHOH = ON*

Assays:
HDAC2 [1] = molecular target: T1, HDAC2 (Homo sapiens, UniProt Q92769); experiment: HDAC inhibition assay (fluorogenic, Ac-Leu-Gly-Lys(Ac)-AMC); format: biochemical; settings: for HDAC2 dose-response data (relative enzyme activity), Fig. 6 + S. Fig. 10: duplicate columns
T1 construct: HDAC2 (full length, C-terminal His tag, BPS Bioscience, cat. #: 50002); purchased BPS Bioscience 50002
T1 sequence (Q92769 whole entry): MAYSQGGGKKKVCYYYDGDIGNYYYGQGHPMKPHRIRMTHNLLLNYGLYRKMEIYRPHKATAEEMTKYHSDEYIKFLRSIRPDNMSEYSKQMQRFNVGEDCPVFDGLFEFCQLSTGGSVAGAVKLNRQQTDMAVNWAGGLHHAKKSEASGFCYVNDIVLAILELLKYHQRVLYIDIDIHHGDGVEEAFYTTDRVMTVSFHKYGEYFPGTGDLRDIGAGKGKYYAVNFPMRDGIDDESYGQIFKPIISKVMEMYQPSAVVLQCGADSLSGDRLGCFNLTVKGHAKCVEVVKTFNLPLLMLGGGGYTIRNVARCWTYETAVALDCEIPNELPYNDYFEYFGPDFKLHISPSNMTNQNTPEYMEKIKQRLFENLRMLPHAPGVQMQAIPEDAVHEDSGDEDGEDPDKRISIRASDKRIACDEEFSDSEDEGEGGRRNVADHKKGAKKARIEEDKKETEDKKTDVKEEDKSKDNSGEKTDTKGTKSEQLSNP

HDAC6 = molecular target: T2, HDAC6 (Homo sapiens, UniProt Q9UBN7); experiment: as above; format: biochemical; settings: HDAC6, replicates
T2 construct: HDAC6 (full length, BPS Bioscience, cat. #: 50056); purchased BPS Bioscience 50056
T2 sequence (Q9UBN7 1-1215): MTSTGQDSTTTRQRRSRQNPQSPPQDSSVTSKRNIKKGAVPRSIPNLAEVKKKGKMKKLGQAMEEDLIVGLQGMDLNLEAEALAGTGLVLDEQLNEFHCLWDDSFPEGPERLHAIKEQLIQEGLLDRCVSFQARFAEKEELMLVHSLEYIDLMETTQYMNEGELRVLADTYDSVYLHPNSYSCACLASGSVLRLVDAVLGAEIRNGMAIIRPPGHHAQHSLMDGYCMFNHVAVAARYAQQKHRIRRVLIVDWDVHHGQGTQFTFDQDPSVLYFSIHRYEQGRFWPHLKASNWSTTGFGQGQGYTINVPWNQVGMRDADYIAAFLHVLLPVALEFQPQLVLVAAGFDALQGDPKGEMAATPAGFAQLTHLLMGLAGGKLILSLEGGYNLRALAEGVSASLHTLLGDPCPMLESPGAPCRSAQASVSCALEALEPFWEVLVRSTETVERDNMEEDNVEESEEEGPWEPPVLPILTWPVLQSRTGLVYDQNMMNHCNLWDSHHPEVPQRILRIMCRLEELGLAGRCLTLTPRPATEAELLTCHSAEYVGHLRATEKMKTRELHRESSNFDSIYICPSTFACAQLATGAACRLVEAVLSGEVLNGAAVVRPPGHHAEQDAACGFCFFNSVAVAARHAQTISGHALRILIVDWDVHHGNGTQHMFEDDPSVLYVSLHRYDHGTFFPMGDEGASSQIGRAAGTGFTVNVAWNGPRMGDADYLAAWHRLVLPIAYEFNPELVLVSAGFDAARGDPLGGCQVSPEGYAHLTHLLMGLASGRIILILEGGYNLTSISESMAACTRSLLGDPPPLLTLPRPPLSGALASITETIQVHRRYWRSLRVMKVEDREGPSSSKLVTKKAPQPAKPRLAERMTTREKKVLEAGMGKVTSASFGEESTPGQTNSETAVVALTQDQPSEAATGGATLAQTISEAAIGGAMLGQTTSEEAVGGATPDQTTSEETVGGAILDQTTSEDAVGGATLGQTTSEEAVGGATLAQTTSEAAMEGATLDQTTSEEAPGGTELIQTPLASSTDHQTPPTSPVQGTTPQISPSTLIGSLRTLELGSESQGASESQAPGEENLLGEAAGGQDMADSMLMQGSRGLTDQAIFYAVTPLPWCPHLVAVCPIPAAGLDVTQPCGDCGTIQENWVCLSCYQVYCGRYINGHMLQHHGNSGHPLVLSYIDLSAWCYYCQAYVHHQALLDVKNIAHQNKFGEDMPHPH

HDAC3/NCoR2 [2] = molecular target: T3, HDAC3/NCoR2 (Homo sapiens, UniProt O15379); experiment: Recombinant HDAC µSPOT microarray binding assay;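 further: peptide spots on cellulose slides incubated with rising HDAC enzyme concentrations, imaged together, four-parameter logistic fit, EC50 is enzyme concentration giving half-maximal binding signal, two experiments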
T3 construct: HDAC3/NCoR2 (full length, C-terminal His tag, NCoR2 N-terminal GST tag); purchased BPS Bioscience 50003
T3 sequence (O15379 whole entry): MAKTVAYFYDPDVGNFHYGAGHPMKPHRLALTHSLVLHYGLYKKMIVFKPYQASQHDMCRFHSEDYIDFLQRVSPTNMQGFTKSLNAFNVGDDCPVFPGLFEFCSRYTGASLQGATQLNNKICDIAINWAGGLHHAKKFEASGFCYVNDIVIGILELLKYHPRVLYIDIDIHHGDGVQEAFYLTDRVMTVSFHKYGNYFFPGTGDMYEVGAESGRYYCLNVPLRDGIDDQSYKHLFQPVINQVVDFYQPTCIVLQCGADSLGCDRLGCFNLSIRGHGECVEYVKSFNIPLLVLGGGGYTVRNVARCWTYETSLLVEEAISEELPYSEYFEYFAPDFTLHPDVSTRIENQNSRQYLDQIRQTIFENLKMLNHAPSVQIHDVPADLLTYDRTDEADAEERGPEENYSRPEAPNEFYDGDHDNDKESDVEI
T3 sequence (Q9Y618 389-480 partner limits assumed): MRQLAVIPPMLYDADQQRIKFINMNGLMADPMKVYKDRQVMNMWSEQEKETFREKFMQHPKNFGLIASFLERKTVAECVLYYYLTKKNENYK
Protocol: Experiments were performed twice, data were obtained with Array Analyze software (Active Motif), and data analysis and representation were performed with the GraphPad Prism 7 software. Outliers were curated manually and data were fitted to nonlinear regression [log(agonist) vs. response—variable slope (four parameters)]. […] Non-sigmoidal curves were denoted as not determined (N.D.) The pEC50 values were determined as the concentration of HDAC enzyme required for half-maximal binding signal.

HDAC8 [3] = molecular target: T4, HDAC8 (Homo sapiens, UniProt Q9BY41); experiment: Recombinant HDAC µSPOT microarray binding assay;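 further: peptide µSPOT slides incubated with varying HDAC enzyme concentrations, imaged signal intensity fitted by four-parameter variable-slope regression, EC50 is enzyme concentration giving half-maximal binding, pH 7.4 HEPES buffer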
T4 construct: HDAC8 (full length, C-terminal His tag, BPS Bioscience, cat. #: 50008); purchased BPS Bioscience 50008
T4 sequence (Q9BY41 1-377): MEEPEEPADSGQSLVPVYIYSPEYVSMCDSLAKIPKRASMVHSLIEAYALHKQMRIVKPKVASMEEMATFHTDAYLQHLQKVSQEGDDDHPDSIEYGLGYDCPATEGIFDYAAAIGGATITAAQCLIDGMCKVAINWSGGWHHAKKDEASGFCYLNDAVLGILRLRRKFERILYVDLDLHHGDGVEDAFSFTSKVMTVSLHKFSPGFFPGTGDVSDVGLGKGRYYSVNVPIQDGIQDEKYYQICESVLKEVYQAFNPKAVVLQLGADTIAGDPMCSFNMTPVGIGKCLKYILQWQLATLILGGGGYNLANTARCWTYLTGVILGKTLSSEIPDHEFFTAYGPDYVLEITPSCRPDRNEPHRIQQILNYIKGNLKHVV

HDAC1 [4] = molecular target: T5, HDAC1 (Homo sapiens, UniProt Q13547); experiment: HDAC inhibition assay (fluorogenic, Ac-Leu-Gly-Lys(Ac)-AMC); format: biochemical; settings: for HDAC1 dose-response data (relative enzyme activity), Fig. 6 + S. Fig. 10: duplicate columns
T5 construct: HDAC1 (full length, C-terminal His tag, C-terminal FLAG tag, BPS Bioscience, cat. #: 50051); FLAG (C); purchased BPS Bioscience 50051
T5 sequence (Q13547 whole entry): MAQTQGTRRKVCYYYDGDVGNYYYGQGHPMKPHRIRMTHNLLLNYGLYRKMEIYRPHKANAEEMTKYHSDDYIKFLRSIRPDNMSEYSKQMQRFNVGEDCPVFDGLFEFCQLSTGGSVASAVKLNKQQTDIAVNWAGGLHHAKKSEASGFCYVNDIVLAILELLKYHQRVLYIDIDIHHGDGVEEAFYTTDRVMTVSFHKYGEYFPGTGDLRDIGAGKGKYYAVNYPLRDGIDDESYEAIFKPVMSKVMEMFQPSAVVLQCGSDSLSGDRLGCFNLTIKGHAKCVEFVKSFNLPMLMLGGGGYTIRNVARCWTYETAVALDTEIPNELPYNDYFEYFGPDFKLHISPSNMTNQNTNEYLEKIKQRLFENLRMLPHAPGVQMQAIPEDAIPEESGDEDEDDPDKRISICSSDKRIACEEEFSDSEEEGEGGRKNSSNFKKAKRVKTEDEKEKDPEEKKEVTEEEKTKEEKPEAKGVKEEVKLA

HDAC3/NCoR2 [5] = molecular target: T3, HDAC3/NCoR2; experiment: as above; format: biochemical; settings: for HDAC3 dose-response data (relative enzyme activity), Fig. 6 + S. Fig. 10: duplicate columns
HDAC1 [6] = molecular target: T5, HDAC1; experiment: Recombinant HDAC µSPOT microarray binding assay
HDAC8 [7] = molecular target: T4, HDAC8; experiment: HDAC inhibition assay (fluorogenic, Ac-Leu-Gly-Lys(Tfa)-AMC); format: biochemical; settings: for HDAC8 dose-response data (relative enzyme activity, replicate values), Fig. 6 + S. Fig. 10: two replicate columns per inhibitor; for HDAC8 dose-response data (relative enzyme activity), Fig. 6 + S. Fig. 10: duplicate columns
HDAC2 [8] = molecular target: T1, HDAC2; experiment: Recombinant HDAC µSPOT microarray binding assay
[9] = log[inhibitor(M)] -10,5850266520292*, whole line marked with asterisks

CC[C@H](C)[C@H](NC(=O)[C@@H](NC(=O)[C@H](CC(N)=O)NC(C)=O)C(C)C)C(=O)N[C@@H](CCCNC(=N)N)C(=O)N[C@@H](CC(=O)O)C(=O)N[C@@H](C)C(=O)N[C@H](C(=O)N[C@H](C(=O)N[C@@H](Cc1ccc(O)cc1)C(=O)N[C@H](C(=O)N[C@@H](CCC(=O)O)C(=O)N[C@@H](Cc1c[nH]cn1)C(=O)N[C@@H](C)C(=O)N[C@@H](CCCCCC(=O)NO)C(=O)N[C@@H](CCCNC(=N)N)C(=O)N[C@@H](CCCCN)C(=O)N[C@@H](Cc1c[nH]c2ccccc12)C(N)=O)[C@@H](C)O)[C@@H](C)O)C(C)C [17a] (Ac-NVIRDAVTYTEHA[Asu](NHOH)RKW-NH2)
HDAC2 dose-response data (relative enzyme activity), Fig. 6 + S. Fig. 10 (HDAC2 [1]; log[inhibitor(M)] -5): 11.53 and 14.13 | HDAC2 dose-response data (relative enzyme activity), Fig. 6 + S. Fig. 10 (HDAC2 [1]; log[inhibitor(M)] -5.69897): 38.85 and 44.3 | HDAC2 dose-response data (relative enzyme activity), Fig. 6 + S. Fig. 10 (HDAC2 [1]; log[inhibitor(M)] -7.79588): 99.37 and 102.1 | HDAC2 dose-response data (relative enzyme activity), Fig. 6 + S. Fig. 10 (HDAC2 [1]; [9]): 100,76* and 101,65* | Ki (HDAC2 [1]; resynthesized peptide in solution, Cheng-Prusoff, n = 2): 183 ± 1 nM | residual enzymatic activity relative to control wells (HDAC6; log[inhibitor(M)] -4.30103): 0.85 and 0.89 | residual enzymatic activity relative to control wells (HDAC6; log[inhibitor(M)] -5): 2.67 and 3.1 | residual enzymatic activity relative to control wells (HDAC6; log[inhibitor(M)] -5.69897): 11.05 and 12.51 | residual enzymatic activity relative to control wells (HDAC6; log[inhibitor(M)] -6.39794): 38.36 and 40.68 | residual enzymatic activity relative to control wells (HDAC6; log[inhibitor(M)] -7.09691): 72.92 and 74.07 | residual enzymatic activity relative to control wells (HDAC6; log[inhibitor(M)] -7.79588): 92.5 and 90.62 | residual enzymatic activity relative to control wells (HDAC6; log[inhibitor(M)] -8.49485): 97.52 and 97.55 | residual enzymatic activity relative to control wells (HDAC6; log[inhibitor(M)] -9.19382): 99.98 and 98.59 | residual enzymatic activity relative to control wells (HDAC6; log[inhibitor(M)] -9.89279): 98.46 and 98.12 | residual enzymatic activity relative to control wells (HDAC6; log[inhibitor(M)] -10.585): 98,71* and 97,59* | EC50 (HDAC3/NCoR2 [2]): 3.16 nM | EC50 (HDAC8 [3]): > 25.1 nM | Ki (HDAC1 [4]): 198 ± 1 nM | HDAC1 dose-response data (relative enzyme activity), Fig. 6 + S. Fig. 10 (HDAC1 [4]; log[inhibitor(M)] -4.30103): 2.18 and 2.15 | HDAC1 dose-response data (relative enzyme activity), Fig. 6 + S. Fig. 10 (HDAC1 [4]; log[inhibitor(M)] -5): 8.98 and 8.99 | HDAC1 dose-response data (relative enzyme activity), Fig. 6 + S. Fig. 10 (HDAC1 [4]; log[inhibitor(M)] -5.69897): 31.34 and 30.75 | HDAC1 dose-response data (relative enzyme activity), Fig. 6 + S. Fig. 10 (HDAC1 [4]; log[inhibitor(M)] -6.39794): 69.51 and 67.92 | HDAC1 dose-response data (relative enzyme activity), Fig. 6 + S. Fig. 10 (HDAC1 [4]; log[inhibitor(M)] -7.09691): 91.81 and 91.08 | HDAC1 dose-response data (relative enzyme activity), Fig. 6 + S. Fig. 10 (HDAC1 [4]; log[inhibitor(M)] -7.79588): 100.43 and 97.85 | HDAC1 dose-response data (relative enzyme activity), Fig. 6 + S. Fig. 10 (HDAC1 [4]; log[inhibitor(M)] -8.49485): 101.87 and 100.28 | HDAC1 dose-response data (relative enzyme activity), Fig. 6 + S. Fig. 10 (HDAC1 [4]; log[inhibitor(M)] -9.19382): 101.68 and 99.1 | HDAC1 dose-response data (relative enzyme activity), Fig. 6 + S. Fig. 10 (HDAC1 [4]; log[inhibitor(M)] -9.89279): 102.02 and 100.95 | HDAC1 dose-response data (relative enzyme activity), Fig. 6 + S. Fig. 10 (HDAC1 [4]; [9]): 100,29* and 101,16* | Ki (HDAC3/NCoR2 [5]): 90.7 ± 0.3 nM | HDAC3 dose-response data (relative enzyme activity), Fig. 6 + S. Fig. 10 (HDAC3/NCoR2 [5]; log[inhibitor(M)] -4.30103): 1.48 and 1.63 | HDAC3 dose-response data (relative enzyme activity), Fig. 6 + S. Fig. 10 (HDAC3/NCoR2 [5]; log[inhibitor(M)] -5): 5.89 and 6.06 | HDAC3 dose-response data (relative enzyme activity), Fig. 6 + S. Fig. 10 (HDAC3/NCoR2 [5]; log[inhibitor(M)] -5.69897): 20.29 and 20.52 | HDAC3 dose-response data (relative enzyme activity), Fig. 6 + S. Fig. 10 (HDAC3/NCoR2 [5]; log[inhibitor(M)] -6.39794): 47.71 and 47.78 | HDAC3 dose-response data (relative enzyme activity), Fig. 6 + S. Fig. 10 (HDAC3/NCoR2 [5]; log[inhibitor(M)] -7.09691): 75.88 and 76.54 | HDAC3 dose-response data (relative enzyme activity), Fig. 6 + S. Fig. 10 (HDAC3/NCoR2 [5]; log[inhibitor(M)] -7.79588): 91.62 and 91.95 | HDAC3 dose-response data (relative enzyme activity), Fig. 6 + S. Fig. 10 (HDAC3/NCoR2 [5]; log[inhibitor(M)] -8.49485): 95.02 and 96.22 | HDAC3 dose-response data (relative enzyme activity), Fig. 6 + S. Fig. 10 (HDAC3/NCoR2 [5]; log[inhibitor(M)] -9.19382): 95.35 and 97.08 | HDAC3 dose-response data (relative enzyme activity), Fig. 6 + S. Fig. 10 (HDAC3/NCoR2 [5]; log[inhibitor(M)] -9.89279): 93.78 and 97.79 | HDAC3 dose-response data (relative enzyme activity), Fig. 6 + S. Fig. 10 (HDAC3/NCoR2 [5]; [9]): 97,93* and 99,33* | EC50 (HDAC1 [6]): > 25.1 nM | Ki (HDAC8 [7]): 7640 ± 60 nM | HDAC8 dose-response data (relative enzyme activity, replicate values), Fig. 6 + S. Fig. 10 (HDAC8 [7]; Inhibitor conc [M] -8.49485 (log)): 101.42 and 103.54 | HDAC8 dose-response data (relative enzyme activity, replicate values), Fig. 6 + S. Fig. 10 (HDAC8 [7]; Inhibitor conc [M] -9.19382 (log)): 101.25 and 102.69 | HDAC8 dose-response data (relative enzyme activity, replicate values), Fig. 6 + S. Fig. 10 (HDAC8 [7]; Inhibitor conc [M] given as -7.09691 (log)): 100.44 and 104.26 | HDAC8 dose-response data (relative enzyme activity, replicate values), Fig. 6 + S. Fig. 10 (HDAC8 [7]; Inhibitor conc [M] given as -7.79588 (log)): 103.27 and 103.5 | HDAC8 dose-response data (relative enzyme activity, replicate values), Fig. 6 + S. Fig. 10 (HDAC8 [7]; Inhibitor conc [M] given as -9.89279 (log)): 103.01 and 103.7 | HDAC8 dose-response data (relative enzyme activity, replicate values), Fig. 6 + S. Fig. 10 (HDAC8 [7]; Inhibitor conc [M] given as -10.585 (log)): 99,9* and 101,68* | HDAC8 dose-response data (relative enzyme activity), Fig. 6 + S. Fig. 10 (HDAC8 [7]; Inhibitor conc [M] -4.30103): 25.68 and 25 | HDAC8 dose-response data (relative enzyme activity), Fig. 6 + S. Fig. 10 (HDAC8 [7]; Inhibitor conc [M] -5): 60.57 and 62.81 | HDAC8 dose-response data (relative enzyme activity), Fig. 6 + S. Fig. 10 (HDAC8 [7]; Inhibitor conc [M] -5.69897): 94.41 and 91.83 | HDAC8 dose-response data (relative enzyme activity), Fig. 6 + S. Fig. 10 (HDAC8 [7]; Inhibitor conc [M] -6.39794): 100.36 and 103.01 | EC50 (HDAC2 [8]): 2 nM
